# Measured values reported in patent US20080146516A1, “Novel C-Glycosides, uses thereof” (L 'OREAL SA, priority 2004, published 2008).
# Test system: normal human dermal fibroblasts
# Assay: Synthesis of glycosaminoglycans (hyaluronic acid): incorporation of radioactivity into the matrix neosynthesized by fibroblast cultures
# Assay type: cell-based
# Details: 72 hours incubation; for cpm (radioactivity incorporated into matrix GAGs): 35S-sulphate during final 24 hours; for %/control: relative to the control (100)
# Description: The study was carried out by measuring the incorporation of radioactive glucosamine into the matrix neosynthesized by normal human dermal fibroblast cultures. The incorporation of radioactive glucosamine indicates specific neosynthesis of glycosaminoglycans via incorporation of the sulphated form of this glucosamine.
# Normal human dermal fibroblasts were seeded in the conventional culture medium and were then preincubated for 24 hours. The culture medium was then replaced with the test compounds at concentrations of 0.3, 1 and 3 mM; or culture medium (control); or TGFβ at 10 ng/ml (quality control). The cells were incubated for 72 hours with the addition of ^35S-sulphate during the final 24 hours of culture. The GAGs in the matrix were extracted with a chaotropic buffer and then purified by ion exchange chromatography (adsorption of the anionic molecules onto Q-sepharose beads under high stringency conditions, followed by desorption of the weakly and moderately anionic molecules with urea). The radioactivity incorporated into the very […] molecules that remained on the support were counted by liquid scintillation.
# The results are expressed as percentage relative to the control: […]
Molecule,cpm (radioactivity incorporated into matrix GAGs) (0.3 mM) [cpm],%/control (0.3 mM) [%],cpm (radioactivity incorporated into matrix GAGs) (1 mM) [cpm],%/control (1 mM) [%],cpm (radioactivity incorporated into matrix GAGs) (3 mM) [cpm],%/control (3 mM) [%],cpm (radioactivity incorporated into matrix GAGs) (10 ng/ml) [cpm],%/control (10 ng/ml) [%]
"C[C@H](O)C[C@@H]1OC[C@@H](O)[C@H](O)[C@H]1O [Example 1, C-β-D-xylopyranoside-2-(S)-hydroxypropane]",16276,325,30943,618,40770,814,,
TGFβ [reference compound],,,,,,,9625,192
